Read-outs that look alike come from different tables or passages of the source.
How the values were obtained:
[1] = Observation of purified γ-iodo-δ-lactone isomers (decomposition, translactonization); format: physicochemical; conditions: purified trans,trans and cis,trans γ-iodo-δ-lactones; residue an equimolar mixture of trans and cis hydroxylactones
Experimental: Iodolactonization of 4a–c acids was carried out with I2/KI and NaHCO3 in a water/diethyl ether mixture. […] The yield of reactions was in the range of 69–85%. The reaction conditions prevented the direct synthesis of these compounds because the reaction was carried out in an alkaline solution, whereas hydroxylactonization requires an acidic environment. […] and predominantly formed in this reaction. The excess of trans-isomer is usually observed in the synthesis of γ -lactones. However, the reaction initially gave δ -iodo- γ -lactones, which, through a translactonization reaction, were transformed into the final products–hydroxylactones 12a and 13a. This was confirmed by observations of purified isomers trans,trans and cis,trans γ -iodo- δ -lactones 9b and 10b, and 9c and 10c. […] The carbocation was stabilized by the electron lone pairs of the oxygen atom present in the water molecule. The preparation of hydroxylactones from iodolactones has been described thus far only for biotransformation experiments. The synthesis described here allows obtaining these compounds without microorganisms.

[2] = MTT reduction cytotoxicity assay; format: cell-based, mouse; conditions: mouse, L929 cells (mouse fibroblasts), read-out: mean percentage of viable cells ± SD
Experimental: (§1) Cell cultures: The L929 mouse fibroblasts and human gastric adenocarcinoma cell line AGS were used for in vitro cytotoxicity assays. The cells were maintained under standard conditions (37 ^∘ C, 5% CO 2 ) in 25 cm^2 tissue culture flasks in RPMI-1640 medium supplemented with 10% fetal bovine serum (FBS) and antibiotics: 100 U/mL penicillin and 100 μ g/mL streptomycin. The cell suspension containing 10 ^8 cells in 1 mL, was obtained by treatment of confluent monolayers with 0.25% trypsin solution, washed and subcultured. Cell cultures were supplemented with medium to maintain them in log phase growth. The viability of the cells was assessed by exclusion of trypan blue dye.
(§2) Measurements of cellular metabolic activity and global growth inhibition: L929 cells were seeded into 96-well plates (2 × 10 ^5 cells/well) for 24 h, at 37 ^∘ C, 5% CO2 . Tested compounds 5a–c, 6a–c, 7a–c, 8a–c, 9b,c, 10b,c, 12a and 13a were diluted serially in RPMI-1640 medium in concentrations of 50, 20, 10, 5, 0.5 and 0.1 μ g/mL, added to the cells (100 μ L/well), and incubated under standard conditions for 24 h. The potential harmful effect of lactones on L929 and AGS cells was assessed by the ability of the cells to reduce 3-(4,5-dimethylthiazol-2-yl)-2,5-diphenyltetrazolium bromide (MTT) to formazan. The solution of MTT (5 mg/mL in PBS), was added to each well and the plates were incubated for 4h at 37 ^∘ C. Formazan crystals were dissolved with acidic isopropanol (0.1 M HCl in absolute isopropanol) and the plates were read in a plate reader (Victor 2) at 570 nm. The percentage of MTT reduction was calculated by comparing the absorbance of treated cells to that of untreated control cells. Results are expressed as the mean percentage of viable cells ± standard deviation (SD) of four independent experiments. Statistical significance was accepted at a p-value < 0.05.

[3] = tested on: Escherichia coli ATCC 8739; experiment: Bactericidal activity, CFU counting method; format: cell-based; conditions: E. coli ATCC 8739; for Number of CFU/mL (× 10^7): 18 h at 37 °C, Control 9.47, Control with DMSO 9.30; for less CFU/mL (reduction of the number of CFU/mL): versus control
Experimental: (§3) The bacterial cultures: Escherichia coli ATCC 8739 and Staphylococcus aureus ATCC 65389 were grown on Luria–Bertani Agar for 18 h at 37 ^∘ C. The strain suspension was prepared in 0.85% saline, with an optical density equivalent to a 0.5 McFarland standard. Next, the following mixtures were prepared: 180 μ L of sterile enriched broth (BTL), 10 μ L of the bacterial suspension and 10 μ L of the tested compound (range 0.1–50 μ g/mL) solubilized in DMSO. As a negative control, only DMSO was added. As a sterility control, 180 μ L of BTL and 20 μ L saline were used. The microtiter plate was incubated at 37 ^∘ C for 18 h. The colony forming unit (CFU) method was used to evaluate the microbial population. The experiment was repeated three times. Gentamicin was used as the reference antibiotic.

[4] = tested on: Staphylococcus aureus ATCC 65389; experiment: Bactericidal activity, CFU counting method; format: cell-based; conditions: S. aureus ATCC 65389; 18 h at 37 °C; Control 21.36, Control with DMSO 20.85
Experimental: as §3

[5] = MTT reduction cytotoxicity assay; format: cell-based, human; conditions: human, AGS cells (human gastric adenocarcinoma), 24 h, read-out: mean percentage of viable cells ± SD
Experimental: as §1, §2

[6] = tested on: AGS cell lines (human gastric adenocarcinoma); experiment: MTT reduction cytotoxicity assay; format: cell-based; conditions: for mean percentage of viable cells ± SD: 24 h
Experimental: as §1, §2

gastric cancer AGS cells = tested on: gastric cancer AGS cells; parameters: method as in PMID 23792648; conditions: reference anticancer drug; cited from earlier work
[7] = tested on: L929 cell lines (mouse fibroblasts); experiment: MTT reduction cytotoxicity assay; format: cell-based; conditions: 24 h
Experimental: as §1, §2

Compound: CC1CC(=O)OC(c2ccccc2)C1I (stereo not drawn) [9b, Trans,trans-tetrahydro-5-iodo-4-methyl-6-phenylpyran-2-one]
- stability of purified isomer (in words) [1]: rapid decomposition with release of iodine
- viability at 24 h, 0.1 μg/mL ([2]; 0.1 μg/mL): 23 ± 0.03%
- viability at 24 h, 0.5 μg/mL ([2]; 0.5 μg/mL): 18 ± 0.03%
- viability at 24 h, 5 μg/mL ([2]; 5 μg/mL): 13 ± 0.07%
- viability at 24 h, 10 μg/mL ([2]; 10 μg/mL): 11 ± 0.06%
- viability at 24 h, 20 μg/mL ([2]; 20 μg/mL): 4 ± 0.15%
- viability at 24 h, 50 μg/mL ([2]; 50 μg/mL): 1 ± 0.12%
- Number of CFU/mL (× 10^7) [3]: 9.02 × 10^7 CFU/mL
- Number of CFU/mL (× 10^7) [4]: 21.25 × 10^7 CFU/mL
- melting point: 107 to 108 °C
- viability at 24 h, 0.1 μg/mL ([5]; 0.1 μg/mL): 54 ± 0.15%
- viability at 24 h, 0.5 μg/mL ([5]; 0.5 μg/mL): 52 ± 0.15%
- viability at 24 h, 5 μg/mL ([5]; 5 μg/mL): 43 ± 0.12%
- viability at 24 h, 10 μg/mL ([5]; 10 μg/mL): 26 ± 0.03%
- viability at 24 h, 20 μg/mL ([5]; 20 μg/mL): 15 ± 0.06%
- viability at 24 h, 50 μg/mL ([5]; 50 μg/mL): 8 ± 0.09%
- IC50 ([6]; Homo sapiens): 1.4 µM

Compound: COc1cccc2c1C(=O)c1c(O)c3c(c(O)c1C2=O)C[C@@](O)(C(=O)CO)C[C@@H]3O[C@H]1C[C@H](N)[C@H](O)[C@H](C)O1 [doxorubicin]
- IC50 (gastric cancer AGS cells): 0.025 µM

Compound: CC1CC(=O)OC(c2ccc(F)cc2)C1I (stereo not drawn) [9c, Trans,trans-6-(4-fluorophenyl)-tetrahydro-5-iodo-4-methylpyran-2-one]
- stability of purified isomer (in words) [1]: rapid decomposition with release of iodine
- mean percentage of viable cells ± SD ([7]; 0.1 μg/mL): 15 ± 0.03%
- mean percentage of viable cells ± SD ([7]; 0.5 μg/mL): 12 ± 0.08%
- mean percentage of viable cells ± SD ([7]; 5 μg/mL): 9 ± 0.06%
- mean percentage of viable cells ± SD ([7]; 10 μg/mL): 6 ± 0.03%
- mean percentage of viable cells ± SD ([7]; 20 μg/mL): 3 ± 0.09%
- mean percentage of viable cells ± SD ([7]; 50 μg/mL): 1 ± 0.05%
- Number of CFU/mL (× 10^7) [3]: 2.43 × 10^7 CFU/mL
- less CFU/mL (reduction of the number of CFU/mL) [3]: 70–78%
- Number of CFU/mL (× 10^7) [4]: 9.76 × 10^7 CFU/mL
- IC50 [6]: 1.4 µM
- mean percentage of viable cells ± SD ([6]; 0.1 μg/mL): 51 ± 0.10%
- mean percentage of viable cells ± SD ([6]; 0.5 μg/mL): 43 ± 0.15%
- mean percentage of viable cells ± SD ([6]; 5 μg/mL): 35 ± 0.10%
- mean percentage of viable cells ± SD ([6]; 10 μg/mL): 23 ± 0.02%
- mean percentage of viable cells ± SD ([6]; 20 μg/mL): 18 ± 0.06%
- mean percentage of viable cells ± SD ([6]; 50 μg/mL): 15 ± 0.03%

Compound: CC1CC(=O)OC(c2ccc(F)cc2)C1I (mixture of isomers) [10c, Cis,trans-6-(4-fluorophenyl)-tetrahydro-5-iodo-4-methylpyran-2-one]
- stability of purified isomer (in words) [1]: rapid decomposition with release of iodine
- mean percentage of viable cells ± SD ([7]; 0.1 μg/mL): 22 ± 0.05%
- mean percentage of viable cells ± SD ([7]; 0.5 μg/mL): 18 ± 0.03%
- mean percentage of viable cells ± SD ([7]; 5 μg/mL): 12 ± 0.07%
- mean percentage of viable cells ± SD ([7]; 10 μg/mL): 6 ± 0.09%
- mean percentage of viable cells ± SD ([7]; 20 μg/mL): 2 ± 0.15%
- mean percentage of viable cells ± SD ([7]; 50 μg/mL): 2 ± 0.05%
- Number of CFU/mL (× 10^7) [3]: 2.87 × 10^7 CFU/mL
- less CFU/mL (reduction of the number of CFU/mL) [3]: 70–78%
- Number of CFU/mL (× 10^7) [4]: 6.30 × 10^7 CFU/mL
- IC50 [6]: 1.7 µM
- mean percentage of viable cells ± SD ([6]; 0.1 μg/mL): 38 ± 0.06%
- mean percentage of viable cells ± SD ([6]; 0.5 μg/mL): 23 ± 0.15%
- mean percentage of viable cells ± SD ([6]; 5 μg/mL): 20 ± 0.02%
- mean percentage of viable cells ± SD ([6]; 10 μg/mL): 13 ± 0.03%
- mean percentage of viable cells ± SD ([6]; 20 μg/mL): 10 ± 0.07%
- mean percentage of viable cells ± SD ([6]; 50 μg/mL): 8 ± 0.03%

Compound: CC1CC(=O)OC(c2ccccc2)C1I (mixture of isomers) [10b, Cis,trans-tetrahydro-5-iodo-4-methyl-6-phenylpyran-2-one]
- stability of purified isomer (in words) [1]: rapid decomposition with release of iodine
- mean percentage of viable cells ± SD ([7]; 0.1 μg/mL): 25 ± 0.08%
- mean percentage of viable cells ± SD ([7]; 0.5 μg/mL): 20 ± 0.03%
- mean percentage of viable cells ± SD ([7]; 5 μg/mL): 15 ± 0.08%
- mean percentage of viable cells ± SD ([7]; 10 μg/mL): 7 ± 0.15%
- mean percentage of viable cells ± SD ([7]; 20 μg/mL): 5 ± 0.06%
- mean percentage of viable cells ± SD ([7]; 50 μg/mL): 1 ± 0.02%
- Number of CFU/mL (× 10^7) [3]: 7.65 × 10^7 CFU/mL
- Number of CFU/mL (× 10^7) [4]: 5.92 × 10^7 CFU/mL
- IC50 [6]: 1.8 µM
- mean percentage of viable cells ± SD ([6]; 0.1 μg/mL): 58 ± 0.07%
- mean percentage of viable cells ± SD ([6]; 0.5 μg/mL): 43 ± 0.02%
- mean percentage of viable cells ± SD ([6]; 5 μg/mL): 37 ± 0.03%
- mean percentage of viable cells ± SD ([6]; 10 μg/mL): 16 ± 0.09%
- mean percentage of viable cells ± SD ([6]; 20 μg/mL): 14 ± 0.08%
- mean percentage of viable cells ± SD ([6]; 50 μg/mL): 10 ± 0.06%

Source: paper PMC6572184, “New γ-Halo-δ-lactones and δ-Hydroxy-γ-lactones with Strong Cytotoxic Activity” (Molecules, 2019)
